From paper PMC13303826, “Nicotinonitrile based dual inhibitors of tubulin and topoisomerase II exhibit potent anticancer activity” (Scientific Reports, 2026)
Read-outs that look alike come from different tables or passages of the source.

Key:
[1] = tested on: colon-26; parameters: method as in PMID 24669888, PMID 30111667, PMID 9873694; conditions: Fig. 1C; cited from earlier work
[2] = tested on: MCF7 cells; test: LDH release cytotoxicity assay, MCF7; type: cell-based; conditions: Homo sapiens, 48 h, mean ± SD, read-out: In vitro cytotoxicity IC50 µM ± SD, MCF7
Description: (§1) HepG2 (Human liver carcinoma), HCT116 (human colorectal carcinoma), MCF7 (human breast adenocarcinoma), and the normal human skin fibroblast (BJ-1) cell lines were purchased from the american type culture collection (Rockville, MD, USA) and maintained in RPMI-1640 medium which was supplemented with 10% heat-inactivated FBS, 100U/ml penicillin and 100U/ml streptomycin. The cells were grown at 37 °C in a humidified atmosphere of 5% CO2. All experiments were conducted thrice in triplicate (n = 3). All the values were represented as means ± SD. Significant differences between the means of parameters as well as IC50s were determined by probit analysis using SPSS software program (SPSS Inc., Chicago, IL).
(§2) To determine the effect of each synthesized compound on membrane permeability in HepG2, MCF-7 and HCT116 cancer cell lines as well as BJ-1 normal cell line, a lactate dehydrogenase (LDH) release assay was used[29]–[33]. The cells were seeded in 24-well culture plates at a density of 1 × 10^4 cells/well in 500 µL volume and allowed to grow for 18 h before treatment. After treatment with a series of different concentrations of each compound or DOX (positive control), the plates were incubated for 48 h. Then, the supernatant (40 µL) was transferred to a new 96 well to determine LDH release and 6% triton X-100 (40 µL) was added to the original plate for determination of total LDH. An aliquot of 0.1 M potassium phosphate buffer (100 µL, pH 7.5) containing 4.6 mM pyruvic acid was mixed to the supernatant using repeated pipetting. Then, 0.1 M potassium phosphate buffer (100 µL, pH 7.5) containing 0.4 mg/mL reduced β-NADH was added to the wells. The kinetic changes were read for 1 min using ELISA microplate reader in absorbance at wavelength 340 nm. This procedure was repeated with 40 µL of the total cell lysate to determine total LDH. The percentage of LDH release was determined by dividing the LDH released into the media by the total LDH following cell lysis in the same well. The cell Passage numbers for MCF 7 = P13, Hep G2 = P15, HCT 116 = P 9.
(§3) All experiments were conducted in triplicate (n = 3). All the values were represented as mean ± SD. Significant differences between the means of parameters as well as IC50s were determined by probit analysis using SPSS software program (SPSS Inc., Chicago, IL).

[3] = tested on: HepG2 cells; test: LDH release cytotoxicity assay, HepG2; type: cell-based; conditions: Homo sapiens, 48 h, mean ± SD, read-out: In vitro cytotoxicity IC50 µM ± SD, HepG2
Description: as §1, §2, §3

[4] = tested on: beta-tubulin; test: Inhibition of tubulin polymerization in MCF-7 cells (beta-tubulin SimpleStep ELISA); type: cell-based, human; conditions: MCF7 cells, concentration not given
Description: Beta-tubulin in vitro simple step ELISA® (Enzyme-Linked Immunosorbent Assay) kit is designed for quantitative measurement of beta-tubulin protein in human cell and tissue homogenate extract samples.
The SimpleStep ELISA® employs an affinity tag labeled capture antibody and a reporter conjugated detector antibody which immunocapture the sample analyte in solution. This entire complex (capture antibody/analyte/detector antibody) is in turn immobilized via immunoaffinity of an anti-tag antibody coating the well. To perform the assay, samples or standards are added to the wells, followed by the antibody mix. After incubation, the wells are washed to remove unbound material. TMB development solution is added and during incubation is catalyzed by horseradish peroxidase (HRP), generating blue coloration. This reaction is then stopped by addition of stop solution completing any color change from blue to yellow. Signal is generated proportionally to the amount of bound analyte and the intensity is measured at 450 nm. Optionally, instead of the endpoint reading, development of TMB can be recorded kinetically at 600 nm. The concentration of beta-tubulin protein in the samples is determined by comparing the optical density (OD) of the samples to the standard curve. Each experiment was repeated two times (Table 2).

[5] = tested on: BJ1 normal cells; test: LDH release cytotoxicity assay, normal skin fibroblasts BJ1; type: cell-based, human; conditions: non-tumor BJ1 fibroblasts
Description: as §1, §2, §3

[6] = tested on: HCT116 cells; test: LDH release cytotoxicity assay, HCT116; type: cell-based; conditions: Homo sapiens, HCT-116, 48 h, mean ± SD, read-out: In vitro cytotoxicity IC50 µM ± SD, HCT116
Description: as §1, §2, §3

[7] = tested on: HT-29; parameters: method as in PMID 25840421, PMID 39533473; conditions: Fig. 1B; cited from earlier work
[8] = tested on: NCI; parameters: method as in PMID 8392342; conditions: Fig. 1B; cited from earlier work
[9] = tested on: MDA-MB-231; parameters: method as in ref 5, 7 (CA-4), ref 13-15 (VII); conditions: Fig. 1; 7 (CA-4), ref 13-15 (VII); cited from earlier work
[10] = tested on: HeLa; conditions: Fig. 1, cited from earlier work
[11] = tested on: Topo II; test: Inhibition of topoisomerase II in MCF-7 cells (TOP2B sandwich ELISA); type: cell-based, human; conditions: MCF7 cells, concentration not given
Description: Mouse TOP2B/Topoisomerase II Beta ELISAKit (Sandwich ELISA) is designed for the quantitative measurement of Topo II enzyme.
This assay is based on the sandwich ELISA principle. Each well of the supplied microtiter plate has been pre-coated with a target specific capture antibody. Standards or samples are added to the wells, and the target antigen binds to the capture antibody. Unbound standard or sample is washed away. A biotin-conjugated detection antibody is then added which binds to the captured antigen. Unbound detection antibody is washed away. An avidin-horseradish peroxidase (HRP) conjugate is then added which binds to the biotin. Unbound avidin-HRP conjugate is washed away. A TMB substrate is then added which reacts with the HRP enzyme resulting in color development. A sulfuric acid stop solution is added to terminate color development reaction and then the optical density (OD) of the well is measured at a wavelength of 450 nm ± 2 nm. An OD standard curve is generated using known antigen concentrations; the OD of an unknown sample can then be compared to the standard curve to determine its antigen concentration. Each experiment was repeated two times (Table 3).

[12] = tested on: MCF7 cells; test: Apoptosis and necrosis analysis by annexin V-FITC/PI staining; type: cell-based, human; conditions: at IC50 (2.4 µM), 48 h
Description: Annexin V apoptosis detection kit is used for analyzing apoptosis and necrosis for active compounds 20 and 26 in MCF7 cells using annexin V-FITC/PI dual staining followed by flow cytometry quantification and fluorescence microscopy detection.
Detection is based on the observation that soon after initiating apoptosis, cells translocate the membrane phosphatidylserine (PS) from the inner face of the plasma membrane to the cell surface. Once on the cell surface, PS can be easily detected by staining with a fluorescent conjugate of annexin V, a protein that has a high affinity for PS. Detection can be analyzed by flow cytometry or/and by fluorescence microscopy. The kit can differentiate between apoptosis and necrosis when performing both annexin V-FITC and PI staining. Assay is summarized as first, induce apoptosis by desired method, collect 1–5 × 10^5 cells by centrifugation, resuspend cells in 500 µl of 1× binding buffer, add 5 µl of annexin V-FITC and 5 µl of propidium iodide and finally incubate at room temperature for 5 min in the dark. After that, analyze annexin V-FITC binding by flow cytometry (Ex = 488 nm; Em = 530 nm) using FITC signal detector (usually FL1) and PI staining by the phycoerythrin emission signal detector (usually FL2) then, observe the cells under a fluorescence microscope using a dual filter set for FITC & rhodamine. Cells that have bound annexin V-FITC will show green staining in the plasma membrane. Cells that have lost membrane integrity will show red staining (PI) throughout the nucleus and a halo of green staining (FITC) on the cell surface.

[13] = tested on: MCF7 cells; test: Propidium iodide flow cytometry cell cycle analysis; type: cell-based, human; conditions: compound at 2.4 µM
Description: Propidium iodide flow cytometry kit (ab139418) is designed for quantitative DNA content analysis in tissue culture cells, so we performed propidium iodide cell cycle analysis for active compounds 20 and 26 using MCF-7 cell line. Propidium iodide staining of DNA is the classic means of cell cycle analysis. The staining procedure takes less than 1 h of total processing time and cells fixed in ethanol are stable for at least several weeks at 4 °C.
Propidium iodide is a fluorescent molecule that binds nucleic acid with little or no sequence preference. Because propidium iodide binds RNA as well as DNA, RNaseA (ribonuclease A) is included in this kit to digest cellular RNA and thus decrease background RNA staining from the experiment. Since propidium iodide is membrane impermeant, ethanol is used to both fix and permeabilize cells. A flow cytometer is required for quantitative analysis. First, fix MCF-7 cells in 66% ethanol, store at + 4 °C for 2 h to 4 weeks and rehydrate cells in PBS. Finally, stain cells with propidium iodide then add RNase for 30 min. Collect propidium iodide fluorescence intensity on FL2 of a flow cytometer and […] laser excitation. A useful way to display propidium iodide data is on a histogram with the cell count on the y-axis and the propidium iodide fluorescence intensity on the x-axis.

[14] = tested on: MCF-7; parameters: method as in ref 8 (podophyllotoxin), ref 13-15 (VIII); conditions: Fig. 1; ref 8 (podophyllotoxin), ref 13-15 (VIII); cited from earlier work
[15] = tested on: A549; parameters: method as in PMID 33465263; conditions: Fig. 1A; cited from earlier work
[16] = tested on: HL-60; parameters: method as in ref 4, 12 (YCH337), ref 13-15 (VIII); conditions: Fig. 1; 12 (YCH337), ref 13-15 (VIII); cited from earlier work
[17] = tested on: HepG2; parameters: method as in PMID 31278032; conditions: Fig. 1A; cited from earlier work
[18] = ref 10 (etoposide), 12 (YCH337)

## COc1ccc(-c2nnnn2-c2cc(OC)c(OC)c(OC)c2)cc1N [IX]
[1]
  IC50: 0.0072 µM

## COc1ccc(-c2cc(-c3cc(OC)cc(OC)c3)c(C#N)c(N=P(c3ccccc3)(c3ccccc3)c3ccccc3)n2)cc1 [Compound 38, 4-(3,5-Dimethoxyphenyl)-6-(4-methoxyphenyl)-2-((triphenyl-λ^5-phosphaneylidene)amino)-nicotinonitrile]
[2]
  IC50: 2.5 ± 0.1 µM
[3]
  IC50: 12.2 ± 1.1 µM
[4]
  tubulin polymerization % inhibition: 71.7%
[5]
  Cytotoxicity / selectivity toward BJ1 normal cells (in words): good selectivity
[6]
  IC50: 31.5 ± 3.2 µM

## COC(=O)C1C(c2cc(OC)c(OC)c(OC)c2)c2cc3c(cc2C(n2cc(-c4ccc(F)cc4)nn2)C1C=O)OCO3 (stereo not shown) [VI]
[7]
  IC50: 0.04 µM

## COc1cc([C@@H]2c3[nH]c4ccccc4c3C[C@H]3COC(=O)N32)cc(OC)c1O [Azatoxin (NSC 640737), azatoxin]
[8]
  IC50: 0.13 µM

## COc1ccc(/C=C\c2cc(OC)c(OC)c(OC)c2)cc1O [CA4, Combretastatin A4]
[9]
  IC50: 0.0028 µM
[4]
  tubulin polymerization % inhibition: 72.1%
[10]; 7 (CA-4), ref 13-15 (VII)
  IC50: 0.001 µM

## Cc1cc(-c2ccco2)c(C#N)c(N=P(c2ccccc2)(c2ccccc2)c2ccccc2)n1 [Compound 41, 4-(Furan-2-yl)-6-methyl-2-((triphenyl-λ^5-phosphaneylidene)amino)nicotinonitrile]
[2]
  IC50: 2.4 ± 0.1 µM
[3]
  IC50: 27.3 ± 2.3 µM
[4]
  tubulin polymerization % inhibition: 61.2%
[5]
  Cytotoxicity / selectivity toward BJ1 normal cells (in words): good selectivity
[6]
  IC50: 38.2 ± 2.8 µM

## COc1cc(-c2cc(-c3cc(OC)c(OC)c(OC)c3)c(C#N)c(Cl)n2)cc(OC)c1OC [Compound 20, 2-Chloro-4,6-bis(3,4,5-trimethoxyphenyl)nicotinonitrile]
[2]
  IC50: 2.4 ± 0.1 µM
[11]
  Topo II % inhibition: 70.3%
[3]
  IC50: 6.1 ± 0.5 µM
[4]
  tubulin polymerization % inhibition: 74.7%
[5]
  Cytotoxicity / selectivity toward BJ1 normal cells (in words): good selectivity
[12]
  Apoptosis Early: 11.91%
  Apoptosis Late: 22.63%
  Apoptosis Total: 38.41%
  Necrosis: 3.87%
[13]
  %G0-G1: 39.69%
  %G2/M: 43.3%
  %S: 17.01%
[6]
  IC50: 34.4 ± 3.2 µM

## COc1cc([C@@H]2c3cc4c(cc3[C@H](O)[C@H]3COC(=O)[C@H]23)OCO4)cc(OC)c1OC [Podophyllotoxin]
[14]
  IC50: 2.21 µM
[15]
  IC50: 1.9 µM

## COc1ccc(O)c(C(=O)c2cnc3[nH]c4ccccc4c3c2)c1 [YCH337]
[10]; [18]
  IC50: 0.06 µM
[16]
  IC50: 0.21 µM

## COc1ccc(-c2cccc(-c3ccc(OC)cc3OC)n2)cc1 [VII]
[9]
  IC50: 0.0031 µM
[10]; 7 (CA-4), ref 13-15 (VII)
  IC50: 0.0038 µM

## COc1ccc(-c2cc(-c3cc(OC)c(OC)c(OC)c3)c(C#N)c(=O)[nH]2)cc1 [VIII]
[14]
  IC50: 0.18 µM
[16]
  IC50: 0.47 µM

## COc1cc([C@@H]2c3cc4c(cc3[C@@H](O[C@@H]3O[C@@H]5CO[C@@H](C)O[C@H]5[C@H](O)[C@H]3O)[C@H]3COC(=O)[C@H]23)OCO4)cc(OC)c1O [Etoposide]
[17]
  IC50: 10.5 µM
[10]; [18]
  IC50: 12.2 µM

## COc1ccc(-c2cc(-c3cc(OC)c(OC)c(OC)c3)c(C#N)c3nnnn23)cc1 [Compound 26, 5-(4-methoxyphenyl)-7-(3,4,5-trimethoxyphenyl)tetrazolo[1,5-a]pyridine-8-carbonitrile]
[2]
  IC50: 2.4 ± 0.1 µM
[11]
  Topo II % inhibition: 43.7%
[3]
  IC50: 6.3 ± 0.3 µM
[4]
  tubulin polymerization % inhibition: 75%
[5]
  Cytotoxicity / selectivity toward BJ1 normal cells (in words): good selectivity
[12]
  Apoptosis Early: 7.58%
  Apoptosis Late: 28.16%
  Apoptosis Total: 41.26%
  Necrosis: 5.51%
[13]
  %G0-G1: 35.64%
  %G2/M: 50.69%
  %S: 13.67%
[6]
  IC50: 63.4 ± 5.3 µM
